Tests used:
A549 = experiment: Antiproliferative activity against human A549 cells assessed as inhibition of cell growth incubated for 48 hrs by MTT assay; type: functional, cell-based; conditions: A549, 48 h
Bel-7402 = experiment: Antiproliferative activity against human Bel-7402 cells assessed as inhibition of cell growth incubated for 48 hrs by MTT assay; type: functional, cell-based; conditions: Bel-7402, 48 h
MCF7 = experiment: Antiproliferative activity against human MCF7 cells assessed as inhibition of cell growth incubated for 48 hrs by MTT assay; type: functional, cell-based; conditions: MCF7, 48 h
BGC-823 = experiment: Antiproliferative activity against human BGC-823 cells assessed as inhibition of cell growth incubated for 48 hrs by MTT assay; type: functional, cell-based; conditions: BGC-823, 48 h
CT26 = experiment: Antiproliferative activity against mouse CT26 cells assessed as inhibition of cell growth incubated for 48 hrs by MTT assay; type: functional, cell-based; conditions: CT26, 48 h
[1] = molecular target: Vascular endothelial growth factor receptor 2 (Mus musculus) (UniProt P35918); experiment: Inhibition of VEGFR2 autophosphorylation in mouse BEND3 cells incubated for 2 hrs by Western blotting analysis; type: cell-based
Chorioallantoic membrane = experiment: Antiangiogenic activity in chicken embryo chorioallantoic membrane assessed as decrease in microvessel density incubated for 48 hrs by microscopic analysis; type: functional, tissue-based; conditions: Gallus gallus

Sequence of Vascular endothelial growth factor receptor 2 (Mus musculus) (P35918 whole entry): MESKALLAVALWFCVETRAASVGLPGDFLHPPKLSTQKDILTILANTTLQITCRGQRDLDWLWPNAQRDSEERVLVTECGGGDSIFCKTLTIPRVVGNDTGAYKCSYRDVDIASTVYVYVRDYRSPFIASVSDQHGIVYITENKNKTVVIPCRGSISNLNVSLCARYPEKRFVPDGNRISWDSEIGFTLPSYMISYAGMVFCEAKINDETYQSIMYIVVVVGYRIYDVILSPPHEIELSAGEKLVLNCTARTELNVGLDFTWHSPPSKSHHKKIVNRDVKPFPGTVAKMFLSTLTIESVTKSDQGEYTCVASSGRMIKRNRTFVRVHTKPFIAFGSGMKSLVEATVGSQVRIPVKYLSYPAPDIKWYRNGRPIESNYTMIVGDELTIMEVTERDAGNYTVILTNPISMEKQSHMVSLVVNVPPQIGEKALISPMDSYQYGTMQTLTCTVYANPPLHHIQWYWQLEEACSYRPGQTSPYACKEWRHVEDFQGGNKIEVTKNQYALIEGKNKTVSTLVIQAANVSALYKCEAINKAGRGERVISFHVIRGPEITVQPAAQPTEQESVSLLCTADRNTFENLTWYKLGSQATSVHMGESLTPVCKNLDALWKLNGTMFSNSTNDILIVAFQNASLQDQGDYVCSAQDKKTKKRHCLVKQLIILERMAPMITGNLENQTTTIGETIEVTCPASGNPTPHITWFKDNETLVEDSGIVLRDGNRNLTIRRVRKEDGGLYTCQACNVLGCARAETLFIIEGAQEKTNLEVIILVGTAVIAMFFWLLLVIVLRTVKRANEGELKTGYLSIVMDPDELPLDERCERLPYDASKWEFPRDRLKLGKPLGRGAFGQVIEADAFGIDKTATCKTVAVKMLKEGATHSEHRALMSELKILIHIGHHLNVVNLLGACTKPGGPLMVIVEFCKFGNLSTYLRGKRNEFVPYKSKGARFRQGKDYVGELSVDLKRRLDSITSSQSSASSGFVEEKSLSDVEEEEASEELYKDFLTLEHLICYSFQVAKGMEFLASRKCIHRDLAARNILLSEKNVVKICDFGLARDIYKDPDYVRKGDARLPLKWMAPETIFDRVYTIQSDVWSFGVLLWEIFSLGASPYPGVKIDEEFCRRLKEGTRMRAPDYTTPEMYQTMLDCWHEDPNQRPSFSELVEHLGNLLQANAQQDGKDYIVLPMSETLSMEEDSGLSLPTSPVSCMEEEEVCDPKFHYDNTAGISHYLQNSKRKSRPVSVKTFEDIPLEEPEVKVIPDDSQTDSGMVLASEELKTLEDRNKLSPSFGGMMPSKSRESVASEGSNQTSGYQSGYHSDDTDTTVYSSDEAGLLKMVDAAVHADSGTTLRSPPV

| IC50 (A549) | IC50 (Bel-7402) | IC50 (MCF7) | IC50 (BGC-823) | IC50 (CT26) | inhibition [1] | SMILES | Activity (Chorioallantoic membrane) |
| --- | --- | --- | --- | --- | --- | --- | --- |
| 14.3 µM | 3.2 µM | 15.6 µM | 8.5 µM | 1.1 µM | – | CCCCn1c2ccccc2c2cc3cn(-c4ccccc4)c[n+]3cc21 | – |
| 12.1 µM | 21.5 µM | 4.9 µM | 7.5 µM | 6.9 µM | – | FC(F)(F)c1ccc(-n2cc3cc4c5ccccc5n(Cc5cccc(Cl)c5)c4c[n+]3c2)cc1 | – |
| 15.4 µM | 22.5 µM | 3.8 µM | 19.1 µM | 23.5 µM | – | CN(C)c1ccc(-n2cc3cc4c5ccccc5n(C)c4c[n+]3c2)cc1 | – |
| 14.3 µM | 16.8 µM | 8.8 µM | 19.2 µM | 13.3 µM | – | COc1ccc(Cn2c3ccccc3c3cc4cn(-c5ccccc5)c[n+]4cc32)cc1 | – |
| 12.3 µM | 8.1 µM | 7.9 µM | 11.9 µM | 21.1 µM | – | CN(C)c1ccc(-n2cc3cc4c5ccccc5n(Cc5cccc(Cl)c5)c4c[n+]3c2)cc1 | – |
| 10.8 µM | 1.8 µM | 10.3 µM | 10.5 µM | 5.8 µM | – | Clc1cccc(Cn2c3ccccc3c3cc4cn(-c5ccccc5)c[n+]4cc32)c1 | – |
| 21.3 µM | 13.2 µM | 2.5 µM | 3.4 µM | 15.9 µM | – | c1ccc(Cn2cc3cc4c5ccccc5n(Cc5ccccc5)c4c[n+]3c2)cc1 | – |
| 2.4 µM | 7.8 µM | 12.1 µM | 1.3 µM | 9.8 µM | Dose-dependent-effect | CCCCn1c2ccccc2c2cc3cn(-c4ccc(C(F)(F)F)cc4)c[n+]3cc21 | Dose-dependent-effect |
| 8.5 µM | 5.5 µM | 1.4 µM | 10.9 µM | 17.2 µM | – | FC(F)(F)c1cccc(-n2cc3cc4c5ccccc5n(Cc5cccc(Cl)c5)c4c[n+]3c2)c1 | – |
| 7.8 µM | 18.3 µM | 20.1 µM | 12.5 µM | 18.4 µM | – | Cn1c2ccccc2c2cc3cn(-c4ccccc4)c[n+]3cc21 | – |
| 23.5 µM | 15.9 µM | 12.5 µM | 14.1 µM | 4.3 µM | – | Fc1ccc(Cn2c3ccccc3c3cc4cn(-c5ccccc5)c[n+]4cc32)cc1 | – |
| 20.1 µM | 22.2 µM | 5.1 µM | 7.3 µM | 11.5 µM | – | COc1ccc(Cn2c3ccccc3c3cc4cn(-c5ccc(N(C)C)cc5)c[n+]4cc32)cc1 | – |
| 7.5 µM | 16.2 µM | 14.1 µM | 7.7 µM | 19.4 µM | – | CN(C)c1ccc(-n2cc3cc4c5ccccc5n(Cc5ccccc5)c4c[n+]3c2)cc1 | – |
| 11.7 µM | 8.3 µM | 4.6 µM | 2.8 µM | 8.9 µM | – | CN(C)CCn1cc2cc3c4ccccc4n(Cc4ccccc4)c3c[n+]2c1 | – |
| 21.8 µM | 10.9 µM | 19.9 µM | 17.6 µM | 8.2 µM | – | Cn1c2ccccc2c2cc3cn(-c4cccc(C(F)(F)F)c4)c[n+]3cc21 | – |
| 10.6 µM | 8.4 µM | 1.5 µM | 13.1 µM | 3.8 µM | – | CN(C)CCn1cc2cc3c4ccccc4n(CCCc4ccccc4)c3c[n+]2c1 | – |
| 8.3 µM | 5.7 µM | 12.7 µM | 14.5 µM | 4.9 µM | – | CCCCn1c2ccccc2c2cc3cn(-c4ccc5ccccc5c4)c[n+]3cc21 | – |
| 22.6 µM | 10.8 µM | 16.9 µM | 12.6 µM | 1.3 µM | – | Clc1cccc(Cn2c3ccccc3c3cc4cn(Cc5ccccc5)c[n+]4cc32)c1 | – |
| 23.2 µM | 16.3 µM | 9.1 µM | 1.1 µM | 15.9 µM | – | FC(F)(F)c1ccc(-n2cc3cc4c5ccccc5n(Cc5ccccc5)c4c[n+]3c2)cc1 | – |
| 6.8 µM | 11.6 µM | 5.5 µM | 4.1 µM | 7.3 µM | – | c1ccc(Cn2c3ccccc3c3cc4cn(-c5ccccc5)c[n+]4cc32)cc1 | – |
| 20.9 µM | 3.5 µM | 11.5 µM | 20.6 µM | 7.7 µM | – | FC(F)(F)c1cccc(-n2cc3cc4c5ccccc5n(Cc5ccccc5)c4c[n+]3c2)c1 | – |
| 12.2 µM | 19.2 µM | 9.2 µM | 3.5 µM | 16.1 µM | – | Cn1c2ccccc2c2cc3cn(-c4cc(F)cc(F)c4)c[n+]3cc21 | – |
| 9.9 µM | 4.1 µM | 15.7 µM | 3.5 µM | 22.7 µM | – | COc1ccc(Cn2c3ccccc3c3cc4cn(-c5ccc(C(F)(F)F)cc5)c[n+]4cc32)cc1 | – |
| 23.9 µM | 5.2 µM | 3.3 µM | 17.5 µM | 4.8 µM | – | FC(F)(F)c1ccc(-n2cc3cc4c5ccccc5n(CCCc5ccccc5)c4c[n+]3c2)cc1 | – |

From ChEMBL document CHEMBL6083248, “Synthesis, pharmacological evaluation, and modeling of novel quaternary ammonium salts derived from β-carboline containing an imidazole moiety as angiogenesis inhibitors” (Bioorg Med Chem, 2024)
